In ChEMBL document CHEMBL4138123, “Design, synthesis and biological evaluation of novel pyrazolochalcones as potential modulators of PI3K/Akt/mTOR pathway and inducers of apoptosis in breast cancer cells” (Eur J Med Chem, 2017):

Tests used:
Type in all cases: functional
HOP-62 = assay: Cytotoxicity against human HOP62 cells assessed as cell growth at 100 uM after 48 hrs by sulforhodamine B assay relative to control; conditions: HOP-62, 48 h, read-out: Activity
NCI-H322M [1] = assay: Cytotoxicity against human NCI-H322M cells assessed as cell growth at 10 uM after 48 hrs by sulforhodamine B assay relative to control; conditions: read-out: Activity
RXF 393 [2] = assay: Cytotoxicity against human RXF393 cells assessed as cell growth at 0.1 uM after 48 hrs by sulforhodamine B assay relative to control; conditions: RXF 393, 48 h, read-out: Activity
NCI-H226 = assay: Cytotoxicity against human NCI-H226 cells assessed as growth inhibition after 48 hrs by sulforhodamine B assay; conditions: NCI-H226, 48 h
IGROV-1 = assay: Cytotoxicity against human IGROV1 cells assessed as cell growth at 0.01 uM after 48 hrs by sulforhodamine B assay relative to control; conditions: IGROV-1, 48 h, read-out: Activity
UACC-62 [3] = assay: Cytotoxicity against human UACC62 cells assessed as cell growth at 10 uM after 48 hrs by sulforhodamine B assay relative to control; conditions: UACC-62, 48 h, read-out: Activity
SNB-19 [4] = assay: Cytotoxicity against human SNB19 cells assessed as cell growth at 0.1 uM after 48 hrs by sulforhodamine B assay relative to control; conditions: SNB-19, 48 h, read-out: Activity
Malme-3M [5] = assay: Cytotoxicity against human MALME-3M cells assessed as cell growth at 0.01 uM after 48 hrs by sulforhodamine B assay relative to control; conditions: read-out: Activity
SF-539 [6] = assay: Cytotoxicity against human SF539 cells assessed as cell growth at 10 uM after 48 hrs by sulforhodamine B assay relative to control; conditions: SF-539, 48 h, read-out: Activity
HCT-15 = assay: Cytotoxicity against human HCT15 cells assessed as cell growth at 0.1 uM after 48 hrs by sulforhodamine B assay relative to control; conditions: HCT-15, 48 h, read-out: Activity
UACC-62 [7] = assay: Cytotoxicity against human UACC62 cells assessed as growth inhibition after 48 hrs by sulforhodamine B assay; conditions: UACC-62, 48 h
NCI-H322M [8] = assay: Cytotoxicity against human NCI-H322M cells assessed as cell growth at 100 uM after 48 hrs by sulforhodamine B assay relative to control; conditions: read-out: Activity
SK-OV-3 = assay: Cytotoxicity against human SKOV3 cells assessed as cell growth at 0.01 uM after 48 hrs by sulforhodamine B assay relative to control; conditions: SK-OV-3, 48 h, read-out: Activity
ACHN [9] = assay: Cytotoxicity against human ACHN cells assessed as cell growth at 10 uM after 48 hrs by sulforhodamine B assay relative to control; conditions: read-out: Activity
CCRF-CEM [10] = assay: Cytotoxicity against human CCRF-CEM cells assessed as growth inhibition after 48 hrs by sulforhodamine B assay
RXF 393 [11] = assay: Cytotoxicity against human RXF393 cells assessed as cell growth at 100 uM after 48 hrs by sulforhodamine B assay relative to control; conditions: RXF 393, 48 h, read-out: Activity
NCI-H522 [12] = assay: Cytotoxicity against human NCI-H522 cells assessed as cell growth at 1 uM after 48 hrs by sulforhodamine B assay relative to control; conditions: NCI-H522, 48 h, read-out: Activity
Malme-3M [13] = assay: Cytotoxicity against human MALME-3M cells assessed as cell growth at 10 uM after 48 hrs by sulforhodamine B assay relative to control; conditions: read-out: Activity
OVCAR-3 = assay: Cytotoxicity against human OVCAR3 cells assessed as cell growth at 100 uM after 48 hrs by sulforhodamine B assay relative to control; conditions: OVCAR-3, 48 h, read-out: Activity
RXF 393 [14] = assay: Cytotoxicity against human RXF393 cells assessed as growth inhibition after 48 hrs by sulforhodamine B assay; conditions: RXF 393, 48 h
MDA-MB-231 = assay: Cytotoxicity against human MDA-MB-231 cells assessed as growth inhibition after 48 hrs by sulforhodamine B assay; conditions: MDA-MB-231, 48 h
NCI-H522 [15] = assay: Cytotoxicity against human NCI-H522 cells assessed as cell growth at 10 uM after 48 hrs by sulforhodamine B assay relative to control; conditions: NCI-H522, 48 h, read-out: Activity
HCT-116 [16] = assay: Cytotoxicity against human HCT116 cells assessed as cell growth at 10 uM after 48 hrs by sulforhodamine B assay relative to control; conditions: HCT-116, 48 h, read-out: Activity
HCT-116 [17] = assay: Cytotoxicity against human HCT116 cells assessed as cell growth at 0.1 uM after 48 hrs by sulforhodamine B assay relative to control; conditions: HCT-116, 48 h, read-out: Activity
CCRF-CEM [18] = assay: Cytotoxicity against human CCRF-CEM cells assessed as cell growth at 0.01 uM after 48 hrs by sulforhodamine B assay relative to control; conditions: read-out: Activity
SNB-19 [19] = assay: Cytotoxicity against human SNB19 cells assessed as cell growth at 10 uM after 48 hrs by sulforhodamine B assay relative to control; conditions: SNB-19, 48 h, read-out: Activity
BT-549 = assay: Cytotoxicity against human BT549 cells assessed as growth inhibition after 48 hrs by sulforhodamine B assay; conditions: BT-549, 48 h
CCRF-CEM [20] = assay: Cytotoxicity against human CCRF-CEM cells assessed as cell growth at 0.1 uM after 48 hrs by sulforhodamine B assay relative to control; conditions: read-out: Activity
OVCAR-4 = assay: Cytotoxicity against human OVCAR4 cells assessed as growth inhibition after 48 hrs by sulforhodamine B assay; conditions: OVCAR-4, 48 h
SF-539 [21] = assay: Cytotoxicity against human SF539 cells assessed as growth inhibition after 48 hrs by sulforhodamine B assay; conditions: SF-539, 48 h
SK-MEL-5 = assay: Cytotoxicity against human SK-MEL-5 cells assessed as cell growth at 0.01 uM after 48 hrs by sulforhodamine B assay relative to control; conditions: SK-MEL-5, 48 h, read-out: Activity
K562 = assay: Cytotoxicity against human K562 cells assessed as growth inhibition after 48 hrs by sulforhodamine B assay; conditions: K562, 48 h
UACC-257 = assay: Cytotoxicity against human UACC257 cells assessed as cell growth at 0.1 uM after 48 hrs by sulforhodamine B assay relative to control; conditions: UACC-257, 48 h, read-out: Activity
ACHN [22] = assay: Cytotoxicity against human ACHN cells assessed as cell growth at 1 uM after 48 hrs by sulforhodamine B assay relative to control; conditions: read-out: Activity
TK-10 = assay: Cytotoxicity against human TK10 cells assessed as cell growth at 0.01 uM after 48 hrs by sulforhodamine B assay relative to control; conditions: TK-10, 48 h, read-out: Activity

SMILES: COc1ccc(-c2cc(/C=C/C(=O)c3ccc(OC)c(OC)c3)[nH]n2)cc1
- growth at 100 µM (HOP-62): -71%
- growth at 10 µM (NCI-H322M [1]): -32%
- growth at 0.1 µM (RXF 393 [2]): 93%
- GI50 (NCI-H226): 1.54 µM
- TGI (NCI-H226): 3.51 µM
- growth at 0.01 µM (IGROV-1): 97%
- growth at 10 µM (UACC-62 [3]): -77%
- growth at 0.1 µM (SNB-19 [4]): 90%
- growth at 0.01 µM (Malme-3M [5]): 89%
- growth at 10 µM (SF-539 [6]): -93%
- growth at 0.1 µM (HCT-15): 97%
- GI50 (UACC-62 [7]): 1.65 µM
- LC50 (UACC-62 [7]): 6.79 µM
- TGI (UACC-62 [7]): 3.35 µM
- growth at 100 µM (NCI-H322M [8]): -98%
- growth at 0.01 µM (SK-OV-3): 109%
- growth at 10 µM (ACHN [9]): -58%
- GI50 (CCRF-CEM [10]): 1.34 µM
- LC50 (concentration killing 50% of cells) (CCRF-CEM [10]): > 100 µM
- TGI (CCRF-CEM [10]): 4.14 µM
- growth at 100 µM (RXF 393 [11]): -92%
- growth at 1 µM (NCI-H522 [12]): 11%
- growth at 10 µM (Malme-3M [13]): -70%
- growth at 100 µM (OVCAR-3): -96%
- GI50 (RXF 393 [14]): 1.39 µM
- LC50 (concentration killing 50% of cells) (RXF 393 [14]): 6.2 µM
- TGI (RXF 393 [14]): 2.94 µM
- GI50 (MDA-MB-231): 2 µM
- LC50 (MDA-MB-231): 30 µM
- TGI (MDA-MB-231): 6.63 µM
- growth at 10 µM (NCI-H522 [15]): -68%
- growth at 10 µM (HCT-116 [16]): -78%
- growth at 0.1 µM (HCT-116 [17]): 105%
- growth at 0.01 µM (CCRF-CEM [18]): 102%
- growth at 10 µM (SNB-19 [19]): -31%
- GI50 (BT-549): 1.68 µM
- LC50 (concentration killing 50% of cells) (BT-549): 7.4 µM
- TGI (BT-549): 3.53 µM
- growth at 0.1 µM (CCRF-CEM [20]): 97%
- GI50 (OVCAR-4): 0.59 µM
- LC50 (OVCAR-4): 28.4 µM
- TGI (OVCAR-4): 3.87 µM
- GI50 (SF-539 [21]): 1.27 µM
- LC50 (concentration killing 50% of cells) (SF-539 [21]): 5.38 µM
- TGI (SF-539 [21]): 2.61 µM
- growth at 0.01 µM (SK-MEL-5): 90%
- GI50 (K562): 1.28 µM
- LC50 (concentration killing 50% of cells) (K562): > 100 µM
- TGI (K562): 10.7 µM
- growth at 0.1 µM (UACC-257): 86%
- growth at 1 µM (ACHN [22]): 82%
- growth at 0.01 µM (TK-10): 100%
